Laboratory results from ChEMBL document CHEMBL4011609, “Discovery of novel BRD4 inhibitors by high-throughput screening, crystallography, and cell-based assays” (Bioorg Med Chem Lett, 2017).
Values belong to the molecule of their own block, whether it stands above or below them. The source made the active and inactive calls. No cut-off for these calls is given here.

Assays:
[1] = biological target: T1, Bromodomain-containing protein 4 (Homo sapiens, UniProt O60885); test: Inhibition of human BRD4-BD1 (49 to 170 residues) expressed in Escherichia coli BL21(DE3) using N-C:SGRG-K(Ac)-GG-K(Ac)-GLG-K(Ac)-GGA-K(Ac)-RHRKVGG-K(biotin) as substrate preincubated for 15 mins followed by substrate addition measured after 5 mins by AlphaScreen assay
[2] = biological target: T1, Bromodomain-containing protein 4; test: Inhibition of human BRD4-BD1 (49 to 170 residues) expressed in Escherichia coli BL21(DE3) using N-C:SGRG-K(Ac)-GG-K(Ac)-GLG-K(Ac)-GGA-K(Ac)-RHRKVGG-K(biotin) as substrate preincubated for 15 mins followed by substrate addition measured after 5 mins by AlphaScreen assay relative to control; parameters: concentration or dose not given beside the values
[3] = biological target: T1, Bromodomain-containing protein 4; test: Inhibition of BRD4 BD1 in human MV4-11 cells assessed as reduction in c-Myc mRNA level at 10 to 30 uM after 6 hrs by Sybr green dye based qRT-PCR analysis; format: cell-based
MV4-11 [4] = test: Induction of apoptosis in human MV4-11 cells assessed as apoptotic cells at 27 uM after 72 hrs by Annexin V-FITC/propidium iodide staining based flow cytometry (reference value: 3.62 %); format: functional
[5] = biological target: SWI/SNF-related matrix-associated actin-dependent regulator of chromatin subfamily A member 2 (Homo sapiens) (UniProt P51531); test: Inhibition of SMARCA2 (unknown origin) at 50 uM using acetylated lysine as substrate relative to control
[6] = biological target: T1, Bromodomain-containing protein 4; test: Binding affinity to human BRD4 BD1 (49 to 170 residues) expressed in Escherichia coli BL21(DE3) assessed as change in melting temperature at 200 uM by SYPRO Orange probe-based Real-Time PCR method
MV4-11 [7] = test: Cell cycle arrest in human MV4-11 cells assessed as accumulation at G2 phase at 27 uM after 24 hrs by propidium iodide/RNase staining based flow cytometry (reference value: 10.48 %); format: functional
[8] = biological target: T1, Bromodomain-containing protein 4; test: Inhibition of BRD4 BD1 in human MV4-11 cells assessed as reduction in c-Myc expression after 6 hrs by Western blot method; format: cell-based
[9] = biological target: SWI/SNF-related matrix-associated actin-dependent regulator of chromatin subfamily A member 2 (Homo sapiens) (UniProt P51531); test: Inhibition of SMARCA2 (unknown origin) at 100 uM using acetylated lysine as substrate relative to control
[10] = biological target: Nucleosome-remodeling factor subunit BPTF (Homo sapiens) (UniProt Q12830); test: Inhibition of FALZ (unknown origin) at 50 uM using acetylated lysine as substrate relative to control
MV4-11 [11] = test: Antiproliferative activity against human MV4-11 cells after 7 days by Alamar blue assay; settings: MV4-11, 168 h
[12] = biological target: Nucleosome-remodeling factor subunit BPTF (Homo sapiens) (UniProt Q12830); test: Inhibition of FALZ (unknown origin) at 100 uM using acetylated lysine as substrate relative to control
MV4-11 [13] = test: Cell cycle arrest in human MV4-11 cells assessed as accumulation at S phase at 27 uM after 24 hrs by propidium iodide/RNase staining based flow cytometry (reference value: 31.98 %); format: functional
[14] = biological target: T2, Bromodomain-containing protein 7 (Homo sapiens) (UniProt Q9NPI1); test: Inhibition of BRD7 (unknown origin) at 50 uM using acetylated lysine as substrate relative to control
T2 sequence (whole entry): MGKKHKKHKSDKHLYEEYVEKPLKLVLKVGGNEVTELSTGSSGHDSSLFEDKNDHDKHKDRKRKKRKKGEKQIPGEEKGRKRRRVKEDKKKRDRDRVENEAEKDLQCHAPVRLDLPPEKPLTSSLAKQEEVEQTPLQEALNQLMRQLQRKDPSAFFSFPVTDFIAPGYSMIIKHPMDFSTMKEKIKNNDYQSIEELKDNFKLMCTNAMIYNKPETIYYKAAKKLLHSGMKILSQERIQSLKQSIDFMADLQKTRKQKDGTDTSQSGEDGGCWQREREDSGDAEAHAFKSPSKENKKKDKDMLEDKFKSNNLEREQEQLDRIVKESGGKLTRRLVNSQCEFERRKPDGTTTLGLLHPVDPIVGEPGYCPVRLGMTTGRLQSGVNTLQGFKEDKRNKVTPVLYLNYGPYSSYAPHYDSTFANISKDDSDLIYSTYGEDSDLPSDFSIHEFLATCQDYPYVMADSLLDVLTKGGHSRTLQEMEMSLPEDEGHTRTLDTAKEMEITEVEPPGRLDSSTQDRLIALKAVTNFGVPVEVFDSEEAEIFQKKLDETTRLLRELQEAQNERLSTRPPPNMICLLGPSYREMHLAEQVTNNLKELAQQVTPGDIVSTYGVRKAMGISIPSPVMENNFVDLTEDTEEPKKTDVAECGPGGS

[15] = biological target: T1, Bromodomain-containing protein 4; test: Binding affinity to human BRD4 BD1 (49 to 170 residues) expressed in Escherichia coli BL21(DE3) assessed as change in melting temperature at 100 uM by SYPRO Orange probe-based Real-Time PCR method
[16] = biological target: T2, Bromodomain-containing protein 7 (Homo sapiens); test: Inhibition of BRD7 (unknown origin) at 100 uM using acetylated lysine as substrate relative to control
[17] = biological target: T3, Bromodomain-containing protein 9 (Homo sapiens) (UniProt Q9H8M2); test: Inhibition of BRD9 (unknown origin) at 100 uM using acetylated lysine as substrate relative to control
T3 sequence (whole entry): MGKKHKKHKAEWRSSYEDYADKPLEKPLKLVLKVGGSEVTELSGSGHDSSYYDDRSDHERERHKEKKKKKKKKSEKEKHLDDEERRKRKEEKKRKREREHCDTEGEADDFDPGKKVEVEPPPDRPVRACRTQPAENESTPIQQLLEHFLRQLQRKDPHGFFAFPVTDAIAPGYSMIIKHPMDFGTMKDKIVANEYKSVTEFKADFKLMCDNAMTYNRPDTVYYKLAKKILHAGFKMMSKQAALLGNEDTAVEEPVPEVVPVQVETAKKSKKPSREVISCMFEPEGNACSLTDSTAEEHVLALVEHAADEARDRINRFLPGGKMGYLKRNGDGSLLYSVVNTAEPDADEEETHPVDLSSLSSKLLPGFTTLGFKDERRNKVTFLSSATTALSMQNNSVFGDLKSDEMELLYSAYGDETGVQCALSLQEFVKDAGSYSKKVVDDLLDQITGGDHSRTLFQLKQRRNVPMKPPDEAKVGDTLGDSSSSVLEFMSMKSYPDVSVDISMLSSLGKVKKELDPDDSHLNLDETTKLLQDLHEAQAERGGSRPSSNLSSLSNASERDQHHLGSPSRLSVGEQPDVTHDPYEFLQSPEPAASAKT

[18] = biological target: T1, Bromodomain-containing protein 4; test: Inhibition of BRD4 BD1 in human MV4-11 cells assessed as reduction in CDK6 mRNA level at 10 to 30 uM after 6 hrs by Sybr green dye based qRT-PCR analysis; format: cell-based
MV4-11 [19] = test: Antiproliferative activity against human MV4-11 cells after 3 days by Alamar blue assay; settings: MV4-11, 72 h
[20] = biological target: T1, Bromodomain-containing protein 4; test: Binding affinity to human BRD4 BD1 (49 to 170 residues) expressed in Escherichia coli BL21(DE3) assessed as change in melting temperature at 50 uM by SYPRO Orange probe-based Real-Time PCR method
[21] = biological target: T3, Bromodomain-containing protein 9 (Homo sapiens); test: Inhibition of BRD9 (unknown origin) at 50 uM using acetylated lysine as substrate relative to control
MV4-11 [22] = test: Induction of apoptosis in human MV4-11 cells assessed as necrotic cells at 27 uM after 72 hrs by Annexin V-FITC/propidium iodide staining based flow cytometry (reference value: 1.68 %); format: functional
MV4-11 [23] = test: Cell cycle arrest in human MV4-11 cells assessed as accumulation at G0/G1 phase at 27 uM after 24 hrs by propidium iodide/RNase staining based flow cytometry (reference value: 57.54%); format: functional
[24] = biological target: T1, Bromodomain-containing protein 4; test: Binding affinity to human BRD4 BD1 (49 to 170 residues) expressed in Escherichia coli BL21(DE3) assessed as change in melting temperature by SYPRO Orange probe-based Real-Time PCR method
MV4-11 [25] = test: Induction of apoptosis in human MV4-11 cells assessed as live cells at 27 uM after 72 hrs by Annexin V-FITC/propidium iodide staining based flow cytometry (reference value: 92 %); format: functional
[26] = biological target: T1, Bromodomain-containing protein 4; test: Inhibition of BRD4 BD1 in human MV4-11 cells assessed as reduction in Bcl-2 mRNA level at 10 to 30 uM after 6 hrs by Sybr green dye based qRT-PCR analysis; format: cell-based

Chain of SWI/SNF-related matrix-associated actin-dependent regulator of chromatin subfamily A member 2 (Homo sapiens) (P51531 whole entry, the tested form may be a part): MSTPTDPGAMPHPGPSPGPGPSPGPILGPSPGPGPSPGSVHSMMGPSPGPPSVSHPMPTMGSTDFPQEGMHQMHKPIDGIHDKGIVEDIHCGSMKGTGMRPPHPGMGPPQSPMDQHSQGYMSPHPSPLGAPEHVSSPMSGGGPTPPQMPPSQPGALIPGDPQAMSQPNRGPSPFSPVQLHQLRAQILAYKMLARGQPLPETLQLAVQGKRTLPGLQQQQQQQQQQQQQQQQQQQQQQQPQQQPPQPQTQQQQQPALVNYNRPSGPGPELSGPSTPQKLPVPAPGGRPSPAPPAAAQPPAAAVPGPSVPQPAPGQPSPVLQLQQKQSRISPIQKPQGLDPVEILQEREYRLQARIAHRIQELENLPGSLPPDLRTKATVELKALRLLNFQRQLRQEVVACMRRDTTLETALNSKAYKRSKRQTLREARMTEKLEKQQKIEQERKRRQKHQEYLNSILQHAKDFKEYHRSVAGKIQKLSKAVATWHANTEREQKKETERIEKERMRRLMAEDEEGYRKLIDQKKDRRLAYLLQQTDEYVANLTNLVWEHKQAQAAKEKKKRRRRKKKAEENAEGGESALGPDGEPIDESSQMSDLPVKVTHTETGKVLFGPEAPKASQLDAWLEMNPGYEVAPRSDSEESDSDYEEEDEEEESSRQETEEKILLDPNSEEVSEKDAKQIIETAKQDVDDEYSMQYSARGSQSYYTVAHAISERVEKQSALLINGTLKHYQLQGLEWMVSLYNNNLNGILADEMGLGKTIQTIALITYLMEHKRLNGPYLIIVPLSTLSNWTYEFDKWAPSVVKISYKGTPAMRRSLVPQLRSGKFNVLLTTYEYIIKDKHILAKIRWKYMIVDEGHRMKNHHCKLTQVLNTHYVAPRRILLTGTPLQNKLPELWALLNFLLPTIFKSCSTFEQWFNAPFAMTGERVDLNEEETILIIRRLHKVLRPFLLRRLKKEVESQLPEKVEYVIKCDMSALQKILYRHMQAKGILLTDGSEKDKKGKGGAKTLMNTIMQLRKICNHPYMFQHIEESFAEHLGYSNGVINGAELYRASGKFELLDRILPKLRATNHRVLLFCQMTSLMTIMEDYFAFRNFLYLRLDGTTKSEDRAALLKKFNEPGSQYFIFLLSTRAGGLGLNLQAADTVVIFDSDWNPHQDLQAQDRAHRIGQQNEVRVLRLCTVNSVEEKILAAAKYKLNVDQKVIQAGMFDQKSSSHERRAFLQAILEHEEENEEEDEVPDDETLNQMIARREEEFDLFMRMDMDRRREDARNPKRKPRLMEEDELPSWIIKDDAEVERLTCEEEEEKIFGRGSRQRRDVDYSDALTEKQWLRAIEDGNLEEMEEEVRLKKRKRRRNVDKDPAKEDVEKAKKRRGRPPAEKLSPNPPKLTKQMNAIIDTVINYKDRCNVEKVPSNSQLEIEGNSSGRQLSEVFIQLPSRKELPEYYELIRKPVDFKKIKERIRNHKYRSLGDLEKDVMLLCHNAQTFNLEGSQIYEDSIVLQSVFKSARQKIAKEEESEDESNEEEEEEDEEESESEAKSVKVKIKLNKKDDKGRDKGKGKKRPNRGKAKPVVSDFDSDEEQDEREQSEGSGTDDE

SMILES: O=C(CNc1cc(=O)oc2ccccc12)OCC(=O)c1ccc(Br)cc1
- IC50 [1]: 1.04 µM
- inhibition [2]: 97.4%

SMILES: CN(CCCNc1cc(=O)oc2ccccc12)C(=O)c1cccc(Cl)c1
- IC50 [1]: 3.65 µM
- inhibition [2]: 97.1%

SMILES: CN(CCCNc1cc(=O)oc2ccccc12)C(=O)c1cccc(F)c1
- IC50 [1]: 8.18 µM
- inhibition [2]: 97.3%

Second part, led by results:

- inhibition [3]: Active
- inhibition [5]: inactive
- ΔTm [6]: 7.07 °C
- inhibition [8]: Dose-dependent effect
- inhibition [9]: inactive
- inhibition [10]: inactive
- IC50 (MV4-11 [11]): 10 µM
- inhibition [12]: inactive
- inhibition [14]: 9%
- ΔTm [15]: 3.06 °C
- IC50 [1]: 0.81 µM
- inhibition [16]: 16%
- inhibition [17]: 12%
- inhibition [18]: Active
- IC50 (MV4-11 [19]): 18.8 µM
- ΔTm [20]: 0.85 °C
- inhibition [21]: inactive
- deltaTm [24]: Dose-dependent effect
- inhibition [26]: Active
SMILES: CN(CCCNc1cc(=O)oc2ccccc12)C(=O)c1cccs1
- Activity (MV4-11 [4]): 10.7%
- Activity (MV4-11 [7]): 5.84%
- Activity (MV4-11 [13]): 18.93%
- Activity (MV4-11 [22]): 6.9%
- Activity (MV4-11 [23]): 75.23%
- Activity (MV4-11 [25]): 76.2%

- IC50 [1]: 2.05 µM
- inhibition [2]: 98%
SMILES: CN(CCCNc1cc(=O)oc2ccccc12)C(=O)c1ccco1

- IC50 [1]: 4.56 µM
- inhibition [2]: 96.2%
SMILES: CN(CCCNc1cc(=O)oc2ccccc12)C(=O)C(C)(C)C
